Data set [1] in a line: log P by HPLC on a reversed-phase column (C 18), EEC Directive 79/831 Annex V.A8. Type of data set: physicochemical. The following applies: for LOGP_NEUTRAL: pH 7.8, 0.001 molar aqueous ammonium hydrogencarbonate/acetonitrile; for chromatographic logP: reversed-phase HPLC column (C 18). The method, then: The log P values are measured according to EEC Directive 79/831 Annex V.A8 by HPLC (high-performance liquid chromatography) on a reversed-phase column (C 18). Temperature: 55° C. The LC-MS determination in the acidic range is effected at pH 2.7 using 0.1% aqueous formic acid and acetonitrile (contains 0.1% formic acid) as eluents, linear gradient from 10% acetonitrile to 95% acetonitrile. Called log P (HCOOH) in the table. LC-MS determination in the neutral range is effected at pH 7.8 with 0.001 molar aqueous ammonium hydrogencarbonate solution and acetonitrile as eluents; linear gradient from 10% acetonitrile to 95% acetonitrile. Called log P (neutral) in the table. Calibration is effected with unbranched alkan-2-ones (having 3 to 16 carbon atoms) with known log P values (log P values determined on the basis of the retention times by linear interpolation between two successive alkanone s).

The subject of data set [2] is Phaedon cochleariae. Nature of the data set: Phaedon cochleariae spray test (PHAECO). Type of data set: in vivo. The following applies: application rate 500 g/ha; larvae; after 7 days. The protocol: Phaedon cochleariae—Spray Test (PHAECO)
Solvent: 78.0 parts by weight of acetone • • 1.5 parts by weight of dimethylformamide
Emulsifier: alkylaryl polyglycol ether
To produce an appropriate active ingredient formulation, 1 part by weight of active ingredient is dissolved using the stated parts by weight of solvent and made up with water containing an emulsifier concentration of 1000 ppm until the desired concentration is attained. To produce further test concentrations, the preparation is diluted with emulsifier-containing water.
Discs of Chinese cabbage leaves (Brassica pekinensis) are sprayed with an active ingredient formulation of the desired concentration and, after drying, populated with larvae of the mustard beetle (Phaedon cochleariae).
After 7 days, the efficacy in % is determined. 100% means that all the beetle larvae have been killed; 0% means that no beetle larvae have been killed.

Where [3] appears, read: acidic range, pH 2.7, 0.1% aqueous formic acid/acetonitrile, 55° C.
The mark [4] stands for this setting: acidic range, pH 2.7, 0.1% aqueous formic acid/acetonitrile, 55° C., read-out: LOGP_HCOOH.
The mark [5] stands for this setting: neutral range, pH 7.8, read-out: log P (neutral).

Like-named read-outs stand apart in the source and are kept apart here.

Consider `CSc1cc(Cl)ccc1-c1nc2nc(C(F)(F)F)ncc2o1` [Example I-1], for which the LOGP_HCOOH in data set [1] (setting [3]) was 3.86. For the same compound, in data set [1] (neutral range, 55° C.), the LOGP_NEUTRAL is given as 3.77.
`CSc1cc(C(F)(F)F)cnc1-c1nc2cc(C(F)(F)F)ncc2n1C` [Example I-3, 3-methyl-2-[3-(methylsulphanyl)-5-(trifluoromethyl)pyridin-2-yl]-6-(trifluoro-methyl)-3H-imidazo[4,5-c]pyridine] had an LOGP_NEUTRAL in data set [1] (neutral range, 55° C.) of 3.16. Besides, the results for the chromatographic logP in data set [1] (setting [4]) and in data set [1] (setting [5]) were 3.22 and 3.16, respectively. In data set [2], this compound had an efficacy of 100%.
With `CSc1cc(C(F)(F)F)ccc1-c1nc2cc(C(F)(F)F)ncc2n1C` [Example I-5], the LOGP_HCOOH in data set [1] (setting [3]) stood at 3.30. In data set [1] (neutral range, 55° C.), this compound registered an LOGP_NEUTRAL of 3.26. In data set [2], the efficacy worked out at 100%.
In data set [1] (setting [3]), `CSc1cc(Cl)ccc1-c1nc2nc(C(F)(F)F)ncc2n1C` [Example I-6] displayed an LOGP_HCOOH of 2.75. The same compound came in with an LOGP_NEUTRAL in data set [1] (neutral range, 55° C.) of 2.74.
In the same order, the values of `CCS(=O)(=O)CCS(=O)(=O)c1cc(C(F)(F)F)cnc1-c1nc2cc(C(F)(F)F)ncc2n1C` [Example I-7] are 2.72 and 2.67.
On to `CC(C)[S+]([O-])c1cc(C(F)(F)F)cnc1-c1nc2cc(C(F)(F)F)ncc2n1C` (stereo not drawn) [Example I-8], for which the LOGP_HCOOH in data set [1] (setting [3]) is 3.54. Further, the LOGP_NEUTRAL in data set [1] (neutral range, 55° C.) was determined as 3.46.
In the same order, the values of `CCSc1ccccc1-c1nc2nc(C(F)(F)F)ncc2o1` [Example I-9] are 3.66 and 3.64.
In the same order, the values of `CCS(=O)(=O)c1cccnc1-c1nc2cc(C(F)(F)F)ncc2n1C` [Example I-15] are 1.95 and 1.92.
Compound `CC(C)S(=O)(=O)c1cc(C(F)(F)F)cnc1-c1nc2cc(C(F)(F)F)ncc2n1C` [Example I-16] registered an LOGP_HCOOH in data set [1] (setting [3]) of 3.26. In data set [1] (neutral range, 55° C.), the LOGP_NEUTRAL is reported as 3.21.
In the same order, the values of `Cn1c(-c2ccc(F)cc2S(C)(=O)=O)nc2cc(C(F)(F)F)ncc21` [Example I-20] are 2.08 and 2.05.
Consider `CSc1cc(Cl)ccc1-c1nc2cc(C(F)(F)F)ncc2n1C` [Example I-25], for which the LOGP_HCOOH in data set [1] (setting [3]) came out at 3.08. The same compound returned an LOGP_NEUTRAL in data set [1] (neutral range, 55° C.) of 2.97. For the same compound, the efficacy in data set [2] turned out to be 100%.
Compound `Cn1c(-c2ccccc2S(=O)(=O)C2COC2)nc2cc(C(F)(F)F)ncc21` [Example I-27] came in with an LOGP_HCOOH in data set [1] (setting [3]) of 1.87. In data set [1] (neutral range, 55° C.), this compound came in with an LOGP_NEUTRAL of 1.84.
Turning to `Cn1c(-c2ncccc2SC(F)(F)F)nc2cc(C(F)(F)F)ncc21` [Example I-29], the LOGP_HCOOH in data set [1] (setting [3]) is reported as 3.04. The LOGP_NEUTRAL in data set [1] (neutral range, 55° C.) stood at 2.93. The compound also gave an efficacy in data set [2] of 100%.
Turning to `Cn1c(-c2ccc(C(F)(F)F)cc2[S+](C)[O-])nc2cc(C(F)(F)F)ncc21` (stereo not drawn) [Example I-30], the LOGP_HCOOH in data set [1] (setting [3]) turned out to be 2.41. The compound also displayed an LOGP_NEUTRAL in data set [1] (neutral range, 55° C.) of 2.36. The compound further yielded an efficacy in data set [2] of 83%.
The like results for `CCCSc1cc(C(F)(F)F)cnc1-c1nc2cc(C(F)(F)F)ncc2n1C` [Example I-31] were, in that order, 3.94, 3.86 and 100%.
`CCCS(=O)(=O)c1cc(C(F)(F)F)cnc1-c1nc2cc(C(F)(F)F)ncc2n1C` [Example I-32] displayed an LOGP_HCOOH in data set [1] (setting [3]) of 3.37. The LOGP_NEUTRAL in data set [1] (neutral range, 55° C.) is recorded as 3.32.
The like results for `CC[S+]([O-])c1cccnc1-c1nc2cc(C(F)(F)F)ncc2n1C` (stereo not drawn) [Example I-33] were, in that order, 2.12 and 2.11.
In data set [1] (setting [3]), `CSc1cc(Cl)ccc1-c1nc2cc(C(F)(F)F)ncc2o1` [Example I-34] had an LOGP_HCOOH of 4.38. In data set [1] (neutral range, 55° C.), this compound gave an LOGP_NEUTRAL of 4.41.
In turn, `CCSc1ccccc1-c1nc2cc(C(F)(F)F)ncc2o1` [Example I-35, 2-[2-(Ethylsulphanyl)phenyl]-6-(trifluoromethyl)[1,3]oxazolo[5,4-c]pyridine] gave an LOGP_HCOOH in data set [1] (setting [3]) of 4.03. In data set [1] (neutral range, 55° C.), this compound yielded an LOGP_NEUTRAL of 4.07. Further, in data set [1] (setting [5]), the chromatographic logP came out at 4.07.
The compound `Cn1c(-c2ncc(C(F)(F)F)cc2S(C)(=O)=O)nc2cc(C(F)(F)F)ncc21` [Example I-36, 3-Methyl-2-[3-(methylsulphonyl)-5-(trifluoromethyl)pyridin-2-yl]-6-(trifluoromethyl)-3H-imidazo[4,5-c]pyridine] came in with an LOGP_HCOOH in data set [1] (setting [3]) of 2.67. Besides, the LOGP_NEUTRAL in data set [1] (neutral range, 55° C.) turned out to be 2.64. Also, the chromatographic logP in data set [1] (setting [5]) worked out at 2.64. The efficacy in data set [2] is given as 100%.
On to `FC(F)(F)c1cc2nc(-c3ccccc3SC3COC3)oc2cn1` [Example I-40], for which the LOGP_HCOOH in data set [1] (setting [3]) is recorded as 3.15. In data set [1] (neutral range, 55° C.), this compound gave an LOGP_NEUTRAL of 3.10.
The like results for `Cn1c(-c2ncc(C(F)(F)F)cc2S(=O)(=O)CCF)nc2cc(C(F)(F)F)ncc21` [Example I-57] were, in that order, 2.89 and 2.82.
Regarding `Cn1c(-c2ncc(C(F)(F)F)cc2S(=O)(=O)CCO)nc2cc(C(F)(F)F)ncc21` [Example I-58], the LOGP_NEUTRAL in data set [1] (neutral range, 55° C.) is on record as 2.19.
As for `Cn1c(-c2ncc(C(F)(F)F)cc2SCCO)nc2cc(C(F)(F)F)ncc21` [Example I-59], the LOGP_HCOOH in data set [1] (setting [3]) turned out to be 2.41. Moreover, the LOGP_NEUTRAL in data set [1] (neutral range, 55° C.) was 2.31.
The like results for `CCSc1cc(C(N)=O)cnc1-c1nc2cc(C(F)(F)F)ncc2n1C` [Example I-60] were, in that order, 1.77 and 1.76.
The like results for `CCS(=O)(=O)c1c(Cl)cccc1-c1nc2cc(C(F)(F)F)ncc2n1C` [Example I-62] were, in that order, 2.17 and 2.15.
`CCSc1cc(C(F)(F)F)cnc1-c1nc2cc(-c3ccc(C(F)(F)F)cc3)ncc2n1C` [Example I-64, 2-[3-ethylsulphanyl-5-(trifluoromethyl)-2-pyridyl]-3-methyl-6-[4-(trifluoromethyl)-phenyl]imidazo[4,5-c]pyridine] returned an LOGP_HCOOH in data set [1] (setting [3]) of 3.93. The LOGP_NEUTRAL in data set [1] (neutral range, 55° C.) is recorded as 3.95. In addition, the chromatographic logP in data set [1] (setting [5]) turned out to be 3.95.
Consider `CCSc1cc(C(F)(F)F)cnc1-c1nc2cc(-n3cc(C(F)(F)F)cn3)ncc2n1C` [Example I-65], for which, in data set [1] (setting [3]), the LOGP_HCOOH came to 4.37. Further, in data set [1] (neutral range, 55° C.), the LOGP_NEUTRAL came out at 4.31.
Turning to `CCCSc1ccc(OC)nc1-c1nc2cc(C(F)(F)F)ncc2n1C` [Example I-66], the LOGP_HCOOH in data set [1] (setting [3]) was 3.50. The same compound came in with an LOGP_NEUTRAL in data set [1] (neutral range, 55° C.) of 3.42.
In the same order, the values of `COc1ccc(SC)c(-c2nc3cc(C(F)(F)F)ncc3n2C)n1` [Example I-67] are 2.75 and 2.70.
In the same order, the values of `CCSc1cc(C(F)(F)F)cnc1-c1nc2cc(-n3ccc(C(F)(F)F)n3)ncc2n1C` [Example I-69] are 4.37 and 4.32.
For `CCCS(=O)(=O)c1ccc(OC)nc1-c1nc2cc(C(F)(F)F)ncc2n1C` [Example I-71], in data set [1] (setting [3]), the LOGP_HCOOH is recorded as 2.93.
As for `CCS(=O)(=O)c1cc(C#N)cnc1-c1nc2cc(C(F)(F)F)ncc2n1C` [Example I-72], the LOGP_HCOOH in data set [1] (setting [3]) is given as 2.32. In addition, in data set [1] (neutral range, 55° C.), the LOGP_NEUTRAL stood at 2.26.
`CCSc1cc(C(F)(F)F)cnc1-c1nc2cc(-n3cnc(C(F)(F)F)c3)ncc2n1C` [Example I-74, 2-[3-ethylsulphanyl-5-(trifluoromethyl)-2-pyridyl]-3-methyl-6-[4-(trifluoromethyl)-imidazol-1-yl]imidazo[4,5-c]pyridine] came in with an LOGP_NEUTRAL in data set [1] (neutral range, 55° C.) of 3.36. The chromatographic logP in data set [1] (setting [4]) was found to be 3.49; in data set [1] (setting [5]) it was 3.36.
Turning to `CCS(=O)(=O)c1cc(C(F)(F)F)cnc1-c1nc2cc(-n3cnc(C(F)(F)F)c3)ncc2n1C` [Example I-75], the LOGP_HCOOH in data set [1] (setting [3]) came to 2.94. The LOGP_NEUTRAL in data set [1] (neutral range, 55° C.) is on record as 2.84.
Turning to `CCS(=O)(=O)c1cc(C(F)(F)F)cnc1-c1nc2cc(-n3cc(C(F)(F)F)cn3)ncc2n1C` [Example I-76], the LOGP_HCOOH in data set [1] (setting [3]) stood at 3.84. The LOGP_NEUTRAL in data set [1] (neutral range, 55° C.) stood at 3.73.
The like results for `CCS(=O)(=O)c1cc(C(F)(F)F)cnc1-c1nc2cc(-n3ccc(C(F)(F)F)n3)ncc2n1C` [Example I-77] were, in that order, 3.90 and 3.81.
Regarding `Cn1c(-c2ncc(C(F)(F)F)cc2Cl)nc2cc(C(F)(F)F)ncc21` [IX-01, 2-[3-chloro-5-(trifluoromethyl)pyridin-2-yl]-3-methyl-6-(trifluoromethyl)-3H-imidazo[4,5-c]pyridine], in data set [1] (setting [5]), the chromatographic logP came to 2.96.
The same measure, in the same setting: for `CNc1cnc(C(F)(F)F)cc1NC(=O)c1ncc(C(F)(F)F)cc1Cl` [VIII-01, 3-chloro-N-[5-(methylamino)-2-(trifluoromethyl)pyridin-4-yl]-5-(trifluoromethyl)pyridine-2-carboxamide] the value was 3.09; for `CCSc1ccccc1C(=O)Nc1cc(C(F)(F)F)ncc1O` [VIII-02, 2-(ethylsulphanyl)-N-[5-hydroxy-2-(trifluoromethyl)pyridin-4-yl]benzamide], 1.59.
